Measurements taken from US7399866B2, “Compounds, compositions, and methods” (Cytokinetics, Inc., priority 2003, dated 2008).

melting point: 145 °C
SMILES: CC(=O)N1CCC[C@@H](Oc2cc(F)cc(NC(=O)Nc3cccnc3)c2)C1 [Example 1, (R)-1-[3-(1-Acetyl-piperidin-3-yloxy)-5-fluoro-phenyl]-3-pyridin-3-yl-urea]
